This is an account of results in ChEMBL document CHEMBL5370593, “Discovery and In Vitro Characterization of SPL028: Deuterated N,N-Dimethyltryptamine” (ACS Med Chem Lett, 2023).

Series [1] in a line: Metabolic stability in human liver mitochondrial fraction assessed as mean intrinsic clearance measured per million cells incubated upto 60 mins by LC-MS/MS analysis. The class given is ADME, mitochondria, Mitochondria. To be noted: 1 h.
Series [2] in a line: Metabolic stability in human liver mitochondrial fraction assessed as mean half life measured per million cells incubated upto 60 mins by LC-MS/MS analysis. The class given is ADME, mitochondria, Mitochondria.
The nature of series [3]: Metabolic stability in human hepatocytes assessed as half life measured per million cells incubated upto 60 mins by LC-MS/MS analysis. The class given is ADME, cell-based, Hepatocyte.
Series [4] can be described thus: Distribution coefficient, mean logD of compound at pH 7.4 in octanol and aqueous solution incubated for 95 mins under shaking condition by LC-MS/MS analysis. It counts as physicochemical.
The target of series [5] is T1, 5-hydroxytryptamine receptor 1B (Homo sapiens, UniProt P28222). Kind of series: Displacement of [3H] GR125743 from human recombinant 5-HT1B receptor expressed in […] cells incubated for 90 mins by spectrophotometric analysis. It counts as cell-based. A general note: In a radioligand displacement assay an active substance lowers the binding of a labelled ligand.

The target in series [6] is T2, 5-hydroxytryptamine receptor 5A (Homo sapiens, UniProt P47898). Kind of series: Displacement of [3H] LSD from human recombinant 5-HT5A receptor expressed in CHO-K1 cells incubated for 60 mins by spectrophotometric analysis. The class given is cell-based.
Series [7] addresses 5-hydroxytryptamine receptor 7 (Homo sapiens, UniProt P34969). The experiment in a line: Displacement of [3H] LSD from human recombinant 5-HT7 receptor expressed in CHO-K1 cells incubated for 120 mins by spectrophotometric analysis. It counts as cell-based.
The target in series [8] is T3, Alpha-1A adrenergic receptor (Homo sapiens, UniProt P35348).
T3 sequence (P35348 whole entry): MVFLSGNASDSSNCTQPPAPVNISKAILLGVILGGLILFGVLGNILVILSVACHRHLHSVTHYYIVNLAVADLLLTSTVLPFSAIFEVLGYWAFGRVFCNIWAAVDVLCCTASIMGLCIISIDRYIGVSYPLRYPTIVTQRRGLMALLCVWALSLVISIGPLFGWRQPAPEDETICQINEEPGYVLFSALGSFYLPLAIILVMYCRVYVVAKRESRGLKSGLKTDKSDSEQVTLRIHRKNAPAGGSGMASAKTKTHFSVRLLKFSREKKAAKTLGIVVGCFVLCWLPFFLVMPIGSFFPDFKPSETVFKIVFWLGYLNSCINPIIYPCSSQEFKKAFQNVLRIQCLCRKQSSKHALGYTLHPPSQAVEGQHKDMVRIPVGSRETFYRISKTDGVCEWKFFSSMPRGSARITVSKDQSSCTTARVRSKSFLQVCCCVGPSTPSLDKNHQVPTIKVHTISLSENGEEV
Kind of series: Displacement of [3H] prazosin from human recombinant adrenergic alpha-1a receptor expressed in […] cells incubated for 60 mins by spectrophotometric analysis. The class given is cell-based.

For series [9], the target named is T4, Alpha-1B adrenergic receptor (Homo sapiens, UniProt P35368).
T4 sequence (P35368 whole entry): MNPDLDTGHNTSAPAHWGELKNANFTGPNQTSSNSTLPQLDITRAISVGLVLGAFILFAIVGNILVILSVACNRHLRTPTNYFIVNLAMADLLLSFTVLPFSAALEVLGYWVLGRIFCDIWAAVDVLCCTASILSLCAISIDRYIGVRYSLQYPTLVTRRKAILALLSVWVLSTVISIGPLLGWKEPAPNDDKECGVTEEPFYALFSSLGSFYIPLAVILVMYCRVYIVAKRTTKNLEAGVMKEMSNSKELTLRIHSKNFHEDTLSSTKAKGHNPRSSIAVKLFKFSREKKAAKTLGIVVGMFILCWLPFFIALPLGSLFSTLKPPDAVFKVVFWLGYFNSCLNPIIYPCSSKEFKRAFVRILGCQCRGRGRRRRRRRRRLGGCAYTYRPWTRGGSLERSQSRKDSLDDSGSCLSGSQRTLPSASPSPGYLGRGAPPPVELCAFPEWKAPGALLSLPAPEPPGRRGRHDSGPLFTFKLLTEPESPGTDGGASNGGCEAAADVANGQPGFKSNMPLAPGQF
Kind of series: Displacement of [3H] prazosin from human recombinant adrenergic alpha-1b receptor expressed in […] cells incubated for 60 mins by spectrophotometric analysis. It counts as cell-based.

Series [10] is described as follows: Displacement of [3H] idazoxan from imidazoline receptor 2 (unknown origin) by spectrophotometric analysis. More on the design: species or system Homo sapiens.
In series [11] the target is T1, 5-hydroxytryptamine receptor 1B. Kind of series: Displacement of [3H] GR125743 from human recombinant 5-HT1B receptor expressed in […] cells assessed as inhibition constant incubated for 90 mins by spectrophotometric analysis. It counts as cell-based.
The target of series [12] is 5-hydroxytryptamine receptor 2A (Homo sapiens, UniProt P28223). Kind of series: Displacement of [3H] ketanserin from human recombinant 5-HT2A receptor expressed in CHO-K1 cells assessed as inhibition constant incubated for 60 mins by spectrophotometric analysis.
Series [13] deals with T2, 5-hydroxytryptamine receptor 5A. Kind of series: Displacement of [3H] LSD from human recombinant 5-HT5A receptor expressed in CHO-K1 cells assessed as inhibition constant incubated for 60 mins by spectrophotometric analysis. The class given is cell-based.
The target of series [14] is T3, Alpha-1A adrenergic receptor. Kind of series: Displacement of [3H] prazosin from human recombinant adrenergic alpha-1a receptor expressed in […] cells assessed as inhibition constant incubated for 60 mins by spectrophotometric analysis. It counts as cell-based.
Series [15] has as its target T5, Alpha-1D adrenergic receptor (Homo sapiens, UniProt P25100).
T5 sequence (P25100 whole entry): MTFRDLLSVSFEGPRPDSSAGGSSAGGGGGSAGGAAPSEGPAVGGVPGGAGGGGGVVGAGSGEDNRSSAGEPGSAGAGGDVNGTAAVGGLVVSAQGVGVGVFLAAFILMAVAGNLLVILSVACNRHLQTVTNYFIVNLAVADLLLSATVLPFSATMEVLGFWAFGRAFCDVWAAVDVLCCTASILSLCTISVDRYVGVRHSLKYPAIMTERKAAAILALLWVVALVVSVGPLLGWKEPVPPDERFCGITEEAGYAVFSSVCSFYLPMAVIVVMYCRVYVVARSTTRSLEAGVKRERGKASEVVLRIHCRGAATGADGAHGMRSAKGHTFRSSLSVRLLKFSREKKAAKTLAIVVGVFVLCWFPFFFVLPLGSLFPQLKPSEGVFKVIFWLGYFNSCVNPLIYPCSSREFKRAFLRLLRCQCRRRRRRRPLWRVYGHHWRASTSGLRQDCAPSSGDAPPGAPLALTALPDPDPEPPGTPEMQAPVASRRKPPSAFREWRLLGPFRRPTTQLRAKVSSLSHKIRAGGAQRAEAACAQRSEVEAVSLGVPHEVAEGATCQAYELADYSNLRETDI
Kind of series: Displacement of [3H] prazosin from human recombinant adrenergic alpha-1d receptor expressed in HEK293 cells assessed as inhibition constant incubated for 60 mins by spectrophotometric analysis. It counts as cell-based.

In series [16] the target is Neuronal acetylcholine receptor; alpha3/beta4 (Homo sapiens, UniProt P30926+P32297). The experiment in a line: Displacement of [125I]-epibatidine from human recombinant nAChR alpha3beta4 receptor expressed in CHO-K1 cells assessed as inhibition constant incubated for 60 mins by spectrophotometric analysis. It counts as cell-based.

pIC50, pKi: −log10 of the molar value.

T2 sequence (P47898 whole entry): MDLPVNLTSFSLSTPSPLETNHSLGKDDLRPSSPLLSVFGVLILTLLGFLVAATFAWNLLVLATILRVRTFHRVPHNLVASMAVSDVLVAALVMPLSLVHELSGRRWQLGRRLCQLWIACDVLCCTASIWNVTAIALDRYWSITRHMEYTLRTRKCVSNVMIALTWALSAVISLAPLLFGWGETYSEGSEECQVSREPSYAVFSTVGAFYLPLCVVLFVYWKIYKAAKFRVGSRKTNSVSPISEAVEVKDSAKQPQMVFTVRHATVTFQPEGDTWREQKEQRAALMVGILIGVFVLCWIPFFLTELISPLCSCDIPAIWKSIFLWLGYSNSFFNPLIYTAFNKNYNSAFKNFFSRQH
T1 sequence (P28222 whole entry): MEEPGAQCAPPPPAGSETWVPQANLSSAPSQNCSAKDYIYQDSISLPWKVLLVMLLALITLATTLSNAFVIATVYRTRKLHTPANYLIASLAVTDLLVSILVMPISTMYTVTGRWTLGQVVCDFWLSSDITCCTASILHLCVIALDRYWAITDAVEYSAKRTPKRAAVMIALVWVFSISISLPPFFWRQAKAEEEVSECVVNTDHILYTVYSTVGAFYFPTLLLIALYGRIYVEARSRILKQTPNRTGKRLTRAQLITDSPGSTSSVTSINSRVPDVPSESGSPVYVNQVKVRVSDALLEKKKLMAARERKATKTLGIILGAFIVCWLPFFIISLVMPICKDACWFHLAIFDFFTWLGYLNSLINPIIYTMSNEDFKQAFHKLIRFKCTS
Chain of 5-hydroxytryptamine receptor 2A (P28223 whole entry): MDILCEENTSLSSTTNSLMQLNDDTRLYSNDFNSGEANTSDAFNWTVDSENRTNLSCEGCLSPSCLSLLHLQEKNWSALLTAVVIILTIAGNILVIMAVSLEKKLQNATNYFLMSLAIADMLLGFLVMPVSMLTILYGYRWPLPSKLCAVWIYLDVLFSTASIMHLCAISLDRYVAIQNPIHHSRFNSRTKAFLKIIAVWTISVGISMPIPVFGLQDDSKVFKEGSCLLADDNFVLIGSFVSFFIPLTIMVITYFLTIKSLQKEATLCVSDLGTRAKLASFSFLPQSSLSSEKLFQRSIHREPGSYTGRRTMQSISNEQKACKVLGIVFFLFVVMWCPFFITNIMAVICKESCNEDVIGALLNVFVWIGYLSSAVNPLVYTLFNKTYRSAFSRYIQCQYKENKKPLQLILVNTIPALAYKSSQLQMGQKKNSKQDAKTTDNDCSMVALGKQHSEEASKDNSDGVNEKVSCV
Chain of Neuronal acetylcholine receptor; alpha3/beta4 (P30926 whole entry): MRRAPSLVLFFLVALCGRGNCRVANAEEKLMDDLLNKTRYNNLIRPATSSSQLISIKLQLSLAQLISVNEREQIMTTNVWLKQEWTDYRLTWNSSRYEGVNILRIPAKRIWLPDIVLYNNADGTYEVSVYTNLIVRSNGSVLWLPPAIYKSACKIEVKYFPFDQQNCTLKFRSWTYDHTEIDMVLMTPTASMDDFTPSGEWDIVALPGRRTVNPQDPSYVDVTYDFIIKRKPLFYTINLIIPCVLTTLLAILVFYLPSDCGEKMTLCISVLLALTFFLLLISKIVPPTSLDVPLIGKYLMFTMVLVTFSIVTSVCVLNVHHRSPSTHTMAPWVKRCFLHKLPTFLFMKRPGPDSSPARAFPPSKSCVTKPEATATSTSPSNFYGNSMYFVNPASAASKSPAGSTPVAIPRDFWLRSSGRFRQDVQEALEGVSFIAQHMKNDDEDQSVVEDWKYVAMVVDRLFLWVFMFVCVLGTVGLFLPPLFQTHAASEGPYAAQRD
Chain of Neuronal acetylcholine receptor; alpha3/beta4 (P32297 whole entry): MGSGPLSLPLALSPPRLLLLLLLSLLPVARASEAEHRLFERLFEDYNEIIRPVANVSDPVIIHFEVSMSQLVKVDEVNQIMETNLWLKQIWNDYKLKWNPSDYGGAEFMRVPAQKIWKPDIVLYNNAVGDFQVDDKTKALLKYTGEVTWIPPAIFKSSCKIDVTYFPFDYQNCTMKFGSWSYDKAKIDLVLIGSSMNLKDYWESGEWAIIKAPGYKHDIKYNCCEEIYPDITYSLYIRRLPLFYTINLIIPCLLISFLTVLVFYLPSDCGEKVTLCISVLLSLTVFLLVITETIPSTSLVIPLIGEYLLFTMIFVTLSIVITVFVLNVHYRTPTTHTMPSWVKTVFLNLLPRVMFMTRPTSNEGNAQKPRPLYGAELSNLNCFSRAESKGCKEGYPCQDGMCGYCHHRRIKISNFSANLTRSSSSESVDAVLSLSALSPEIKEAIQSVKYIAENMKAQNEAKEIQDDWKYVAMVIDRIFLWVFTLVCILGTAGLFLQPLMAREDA
Chain of 5-hydroxytryptamine receptor 7 (P34969 whole entry): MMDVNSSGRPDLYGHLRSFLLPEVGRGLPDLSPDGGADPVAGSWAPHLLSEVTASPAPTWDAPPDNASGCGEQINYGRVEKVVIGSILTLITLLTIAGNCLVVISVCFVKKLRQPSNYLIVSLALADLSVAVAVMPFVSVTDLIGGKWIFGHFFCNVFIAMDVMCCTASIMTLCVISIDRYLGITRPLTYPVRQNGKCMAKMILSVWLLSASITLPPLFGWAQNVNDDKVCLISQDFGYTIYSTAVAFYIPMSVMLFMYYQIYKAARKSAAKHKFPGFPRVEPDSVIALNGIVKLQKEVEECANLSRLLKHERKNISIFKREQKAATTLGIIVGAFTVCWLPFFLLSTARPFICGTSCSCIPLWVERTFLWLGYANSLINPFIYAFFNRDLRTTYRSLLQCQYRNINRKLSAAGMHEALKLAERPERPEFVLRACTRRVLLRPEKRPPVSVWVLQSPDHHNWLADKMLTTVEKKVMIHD

As a reminder, the half-life is how long it takes for the measured level to halve. One may read the logD as lipophilicity at a set pH, counting ionised and neutral species. Low values mean lower lipophilicity, high ones higher lipophilicity. The term pIC50 denotes the IC50 on a negative log10 scale, so that one unit is a factor of ten. One may read the pKi as the Ki on a negative log10 scale, so that one unit is a factor of ten. Consider `CN(C)CCc1c[nH]c2ccccc12.O=C(O)/C=C/C(=O)O`, for which the CLH in series [1] worked out at 168 µL/min. Moreover, the half-life in series [2] was 0.138 h; in series [3], 3.17 h. The log distribution coefficient (logD) at 1.583 h in series [4] stood at 0.15. Besides, the negative logarithm of the IC50 (pIC50) in series [5] was 5.62; in [6] it was 5.48; in series [7], 6.92; in series [8], 6.24; in [9], 6.17; in series [10], 5.71. Further, the pKi is 5.74 in [11]; 7.40 in series [12]; 5.77 in series [13]; 6.55 in series [14]; 5.82 in series [15]; 5.52 in series [16].
Turning to `O=C(O)/C=C/C(=O)O.[2H]C([2H])(Cc1c[nH]c2ccccc12)N(C)C`, in series [1], the CLH was determined as 16.5 µL/min. Further, the half-life in series [2] was determined as 1.42 h; in series [3] it was 3.72 h. In addition, the logD at 1.583 h in series [4] is 0.11. The negative logarithm of the IC50 (pIC50) in [5] is 5.70; in [6] it was 5.48; in series [7] it was 7.05; in [8], 6.00; in [9] it was 6.03; in [10], 5.59. Also, the pKi in series [11] was 5.82; in series [12], 7.22; in [13], 5.77; in series [14], 6.32; in series [15] it was 5.80; in series [16] it was 5.50.
